Reference: PMC7235764, “Novel Azoles as Antiparasitic Remedies against Brain-Eating Amoebae” (Antibiotics, 2020)

Assays:
N. fowleri [1] = experiment: Amoebistatic assay (growth inhibition on HeLa feeder monolayers) against N. fowleri; assay type: cell-based, Naegleria fowleri; details: 24 h; for inhibition at 50 µM: Naegleria fowleri, HeLa, compared to untreated cells; for amoebistatic activity, mean (M): 50 μM, M with SD
Procedure: (§1) N. fowleri cells (ATCC 30174) and B. mandrillaris cells (ATCC 50209) were acquired from American Type Culture Collection and cultivated in RPMI-1640 media supplemented with 1% antibiotics with HeLa cell monolayers used as a feeder layer at 37 °C and 5% CO2 as previously cultured. 5 × 10^5 amoebae cells were kept for 24 h at 37 °C and 5% CO2 with 50 μM azole compounds on HeLa monolayers as feeder cells. While positive controls used were amphotericin B and ketoconazole, RPMI-1640 alone was used as negative control and respective solvents were used as solvent control. Trypan blue exclusion assay which consists of using 0.1% trypan blue to distinguish between live (unstained) and dead (stained) cells and count the cells using a haemocytometer.

B. mandrillaris [2] = experiment: Amoebistatic assay (growth inhibition on HeLa feeder monolayers) against B. mandrillaris; assay type: cell-based, Balamuthia mandrillaris; details: 24 h; for amoebistatic activity, mean (M): 50 μM, M with SD; for inhibition at 50 µM: Balamuthia mandrillaris, HeLa, untreated amoebae considered as 0%
Procedure: as §1

N. fowleri [3] = experiment: Amoebicidal assay (trypan blue exclusion) against N. fowleri; assay type: cell-based, Naegleria fowleri; details: 50 μM, 24 h; for amoebicidal activity, mean (M): M with SD, azole alone (before conjugation); for percentage cell death (amoebicidal activity): negative control considered as 0%
Procedure: (§2) N. fowleri cells (ATCC 30174) and B. mandrillaris cells (ATCC 50209) were acquired from American Type Culture Collection and cultivated in RPMI-1640 media supplemented with 1% antibiotics with HeLa cell monolayers used as a feeder layer at 37 °C and 5% CO2 as previously cultured.
(§3) Amoebicidal assays were accomplished as formerly explained. Briefly, 5 × 10^5 amoebae cells were kept for 24 h at 37 °C and 5% CO2 with 50 μM azole compounds. While positive controls used were amphotericin B and ketoconazole, RPMI-1640 alone was used as negative control and respective solvents were used as solvent control. Trypan blue exclusion assay, which consists of using 0.1% trypan blue to differentiate between live (unstained) and dead (stained) cells and count the cells using a haemocytometer.

HaCaT cells = experiment: Cytotoxicity assay (LDH release) against human cells; assay type: cell-based; details: 50 μM, 24 h, 37 °C
Procedure: Figure 3 Cytotoxic effects of azoles against host cells. Briefly, 50 μM azoles were incubated with HaCaT cells monolayers for 24 h at 37 °C in a 5% CO2 incubator as described in Materials and Methods. […] The data are presented as the mean ± standard error. Cytotoxic effects of the drugs were determined as previously described. 50 μM azole compounds was incubated on HeLa cells for 24 h at 37 °C and 5% CO2 in RPMI-1640 media. The level of lactate dehydrogenase (LDH) enzyme in the RPMI-media which indicates cytotoxic effects of drugs was determined by means of a cytotoxicity detection kit (Roche Applied Science). The percentage cytotoxicity was calculated: [(Absorbance of sample - Absorbance of untreated cells)/(Absorbance for total LDH release - Absorbance of untreated cells)] × 100 = percentage cytotoxicity.

B. mandrillaris [4] = experiment: Amoebicidal assay (trypan blue exclusion) against B. mandrillaris; assay type: cell-based, Balamuthia mandrillaris; details: 50 μM, 24 h; for amoebicidal activity, mean (M): M with SD, azole alone (before conjugation); for percentage cell death (amoebicidal activity): negative control considered as 0%
Procedure: as §2, §3

Structure (SMILES)	inhibition at 50 µM (N. fowleri [1]) [%]	amoebistatic activity, mean (M) (B. mandrillaris [2]) [%]	inhibition at 50 µM (B. mandrillaris [2]) [%]	amoebicidal activity, mean (M) (N. fowleri [3]) [%]	percentage cell death (amoebicidal activity) (N. fowleri [3])	cytotoxicity (HaCaT cells)	amoebicidal activity, mean (M) (B. mandrillaris [4]) [%]	percentage cell death (amoebicidal activity) (B. mandrillaris [4])	amoebistatic activity, mean (M) (N. fowleri [1]) [%]
COc1cc(-c2nc3ccccc3[nH]2)cc(Br)c1OC [A1, 2-[3-Bromo-4,5-bis(methoxy)phenyl]-1H-benzimidazole]	20	52.63	53	0	did not cause amoebicidal activity	41%	35.62	36%	–
Cc1ccc(-c2nc3ccccc3[nH]2)o1 [A2]	64	70.33	70	–	31%	no cytotoxic activities	–	limited amoebicidal activity	64.31
CC1(C)C/C(=N\NC(=S)Nc2ccccc2Cl)c2cnn(-c3ccccc3)c2C1 [A3, (E)-N-(2-Chlorophenyl)-2-(6,6-dimethyl-1-phenyl-1,5,6,7-tetrahydro-4H-indazol-4-4ylidene)hydrazine-1-carbothioamide]	75	55.62	56	–	39%	19%	23.86	24%	75.12
CC1(C)C/C(=N\NC(N)=S)c2cnn(-c3ccccc3)c2C1 [A4, (E)-2-(6,6-Dimethyl-1-phenyl-1,5,6,7-tetrahydro-4H-indazol-4-4ylidene)hydrazine-1-carbothioamide]	55	64.98	65	72.34	72%	5%	1.65	limited amoebicidal activity	54.70
Clc1cccc(Cc2nnn[nH]2)c1 [A5, 5-(3-Chlorobenzyl)-1H-tetrazole]	63	51.24	51	66.19	66%	11%	64.54	65%	62.74
c1ccc(-c2nnn[nH]2)cc1 [A6, 5-Phenyl-1H-tetrazole]	67	70.35	70	–	45%	no cytotoxic activities	30.58	31%	66.53
